tested on: AMP-activated protein kinase (AMPK); assay: ADP Quest assay for AMPK activators; type: biochemical; set-up: key: fold AMPK activation with vs without activator at 30 µM; details: fold of AMPK activation to phosphorylate SAMS peptide without and with an activator at the concentration of 30 µM
How it was run: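 AMPK phosphorylation of SAMS peptide with ATP monitored kinetically at room temperature by ADP Quest fluorescence (ex 530/em 590 nm), reaction started with enzyme. Compounds tested […] in 2-fold dilutions, AMP as reference. E30 is fold activation at 30 µM activator versus none.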

Row | E30 | SMILES
1 | 1.24 | CC1(C)Cc2cc(C(=O)NS(C)(=O)=O)ccc2NC1c1cccc(N2CCOC2=O)c1 (stereo not shown) [Example 110, N-{3,3-Dimethyl-2-[3-(2-oxo-oxazolidin-3-yl)-phenyl]-1,2,3,4-tetrahydro-quinoline-6-carbonyl}-methanesulfonamide]
2 | 1.24 | CC1(C)Cc2c(C(=O)O)ccc(Cl)c2NC1c1cccc(N2CCOCC2)c1 (stereo not shown) [Example 111, 8-Chloro-3,3-dimethyl-2-(3-morpholin-4-yl-phenyl)-1,2,3,4-tetrahydro-quinoline-5-carboxylic acid]
3 | 1.22 | CC1(C)Cc2cc(C(=O)O)cc(Cl)c2NC1c1cccc(N2CCOCC2)c1 (stereo not shown) [Example 112, 8-Chloro-3,3-dimethyl-2-(3-morpholin-4-yl-phenyl)-1,2,3,4-tetrahydro-quinoline-6-carboxylic acid]
4 | 1.21 | CC1(C)Cc2cc(C(=O)O)ccc2NC1c1ccc(F)c(Cl)c1 (stereo not shown) [Example 113, 2-(3-Chloro-4-fluoro-phenyl)-3,3-dimethyl-1,2,3,4-tetrahydro-quinoline-6-carboxylic acid]
5 | 1.21 | CC1(C)Cc2cc(C(=O)NS(=O)(=O)C3CC3)ccc2NC1c1cncc(N2CCOCC2)c1 (stereo not shown) [Example 114, Cyclopropanesulfonic acid [3,3-dimethyl-2-(5-morpholin-4-yl-pyridin-3-yl)-1,2,3,4-tetrahydro-quinoline-6-carbonyl]-amide]
6 | 1.2 | CC1(C)Cc2cc(C(=O)NS(C)(=O)=O)cc(Cl)c2NC1c1cccc(N2CCOCC2)c1 (stereo not shown) [Example 115, N-[8-Chloro-3,3-dimethyl-2-(3-morpholin-4-yl-phenyl)-1,2,3,4-tetrahydro-quinoline-6-carbonyl]-methanesulfonamide]
7 | 1.2 | CC1(C)Cc2cc(C(=O)NS(=O)(=O)C3CC3)ccc2NC1c1cccc(N2CCOC2=O)c1 (stereo not shown) [Example 116, Cyclopropanesulfonic acid {3,3-dimethyl-2-[3-(2-oxo-oxazolidin-3-yl)-phenyl]-1,2,3,4-tetrahydro-quinoline-6-carbonyl}-amide]
8 | 1.7 | CC1(C)Cc2c(ccc(F)c2C(=O)NS(=O)(=O)C2CC2)NC1c1cccc(N2CCOCC2)c1 (stereo not shown) [Example 117, Cyclopropanesulfonic acid [6-fluoro-3,3-dimethyl-2-(3-morpholin-4-yl-phenyl)-1,2,3,4-tetrahydro-quinoline-5-carbonyl]-amide]
9 | 1.64 | CC1(C)Cc2c(ccc(F)c2C(=O)NS(C)(=O)=O)NC1c1cccc(N2CCOCC2)c1 (stereo not shown) [Example 118, N-[6-Fluoro-3,3-dimethyl-2-(3-morpholin-4-yl-phenyl)-1,2,3,4-tetrahydro-quinoline-5-carbonyl]-methanesulfonamide]
10 | 1.5 | CNCCN(C)c1cccc(C2Nc3ccc(C(=O)O)cc3CC2(C)C)c1 (stereo not shown) [Example 120, 3,3-Dimethyl-2-{3-[methyl-(2-methylamino-ethyl)-amino]-phenyl}-1,2,3,4-tetrahydro-quinoline-6-carboxylic acid]
11 | 1.42 | CC1(C)Cc2c(ccc(F)c2C(=O)O)NC1c1cccc(N2CCOCC2)c1 (stereo not shown) [Example 121, 6-Fluoro-3,3-dimethyl-2-(3-morpholin-4-yl-phenyl)-1,2,3,4-tetrahydro-quinoline-5-carboxylic acid]
12 | 1.39 | CC(C)[C@H]1COC(=O)N1c1cccc(C2Nc3ccc(C(=O)O)cc3CC2(C)C)c1 (stereo partly shown) [Example 122]
13 | 1.36 | CC(C)[C@@H]1COC(=O)N1c1cccc(C2Nc3ccc(C(=O)NS(C)(=O)=O)cc3CC2(C)C)c1 (stereo partly drawn) [Example 123, N-{2-[3-((R)-4-Isopropyl-2-oxo-oxazolidin-3-yl)-phenyl]-3,3-dimethyl-1,2,3,4-tetrahydro-quinoline-6-carbonyl}-methanesulfonamide]
14 | 1.33 | CC(C)[C@@H]1COC(=O)N1c1cccc(C2Nc3ccc(C(=O)NS(=O)(=O)C4CC4)cc3CC2(C)C)c1 (stereo partly drawn) [Example 125, Cyclopropanesulfonic acid {2-[3-((R)-4-isopropyl-2-oxo-oxazolidin-3-yl)-phenyl]-3,3-dimethyl-1,2,3,4-tetrahydro-quinoline-6-carbonyl}-amide]

Second part, the molecule before the results:

Row | SMILES | E30
15 | CCS(=O)(=O)NC(=O)c1ccc2c(c1)CC(C)(C)C(c1cccc(N3CCOCC3)c1)N2 (stereo not shown) [Example 98, Ethanesulfonic acid [3,3-dimethyl-2-(3-morpholin-4-yl-phenyl)-1,2,3,4-tetrahydro-quinoline-6-carbonyl]-amide] | 1.44
16 | CN1CCN(c2cccc(C3Nc4ccc(C(=O)O)cc4CC3(C)C)c2)CC1 (stereo not shown) [Example 99, 3,3-Dimethyl-2-[3-(4-methyl-piperazin-1-yl)-phenyl]-1,2,3,4-tetrahydro-quinoline-6-carboxylic acid] | 1.42
17 | CC1(C)Cc2cc(Cl)cc(C(=O)O)c2NC1c1cccc(N2CCOCC2)c1 (stereo not shown) [Example 100, 6-Chloro-3,3-dimethyl-2-(3-morpholin-4-yl-phenyl)-1,2,3,4-tetrahydro-quinoline-8-carboxylic acid] | 1.4
18 | CC1(C)Cc2cc(Cl)cc(C(=O)NS(=O)(=O)C3CC3)c2NC1c1cccc(N2CCOCC2)c1 (stereo not shown) [Example 101, Cyclopropanesulfonic acid [6-chloro-3,3-dimethyl-2-(3-morpholin-4-yl-phenyl)-1,2,3,4-tetrahydro-quinoline-8-carbonyl]-amide] | 1.4
19 | CC1(C)Cc2cc(C(=O)O)ccc2NC1c1cccc(N2CCNCC2)c1 (stereo not shown) [Example 102, 3,3-Dimethyl-2-(3-piperazin-1-yl-phenyl)-1,2,3,4-tetrahydro-quinoline-6-carboxylic acid] | 1.4
20 | CC1(C)Cc2cc(C(=O)NS(C)(=O)=O)ccc2NC1c1cccc(N2CCNCC2)c1 (stereo not shown) [Example 103, N-[3,3-Dimethyl-2-(3-piperazin-1-yl-phenyl)-1,2,3,4-tetrahydro-quinoline-6-carbonyl]-methanesulfonamide] | 1.37
21 | CC1CN(c2cccc(C3Nc4ccc(C(=O)NS(=O)(=O)C5CC5)cc4CC3(C)C)c2)CC(C)O1 (stereo not shown) [Example 105, Cyclopropanesulfonic acid {2-[3-(2,6-dimethyl-morpholin-4-yl)-phenyl]-3,3-dimethyl-1,2,3,4-tetrahydro-quinoline-6-carbonyl}-amide] | 1.35
22 | CC1CN(c2cccc(C3Nc4ccc(C(=O)O)cc4CC3(C)C)c2)CC(C)O1 (stereo not shown) [Example 106, 2-[3-(2,6-Dimethyl-morpholin-4-yl)-phenyl]-3,3-dimethyl-1,2,3,4-tetrahydro-quinoline-6-carboxylic acid] | 1.3
23 | COc1cccc(C2Nc3ccc(C(=O)N4CCC(C)(O)C4)cc3CC2(C)C)c1 (stereo not shown) [Example 107, (3-Hydroxy-3-methyl-pyrrolidin-1-yl)-[2-(3-methoxy-phenyl)-3,3-dimethyl-1,2,3,4-tetrahydro-quinolin-6-yl]-methanone] | 1.29
24 | CC1(C)Cc2cc(C(=O)O)ccc2NC1c1cccnc1 (stereo not shown) [Example 108, 3,3-Dimethyl-2-pyridin-3-yl-1,2,3,4-tetrahydro-quinoline-6-carboxylic Acid] | 1.29
25 | CC1(C)Cc2cc(C(=O)O)ccc2NC1c1cccc(-c2ccc(Cl)cc2)c1 (stereo not shown) [Example 109, 2-(4′-Chloro-biphenyl-3-yl)-3,3-dimethyl-1,2,3,4-tetrahydro-quinoline-6-carboxylic acid] | 1.24
